# Results reported in ChEMBL document CHEMBL5137024, “Discovery of novel coumarin-indole derivatives as tubulin polymerization inhibitors with potent anti-gastric cancer activities” (Eur J Med Chem, 2022).
# Calls of active or inactive are those of the source. The rule behind the calls is not given here.
# Experiments:
# [1] = Toxicity in BALB/c nude mouse xenografted with human MGC-803 cells assessed as pathological changes in heart at 15 to 30 mg/kg, ip administered once daily for 21 days by Hematoxyin-eosin staining based analysis; assay type: organism-based; settings: in vivo, 504 h, dose 15-30 mg/kg, time 21 day
# MGC-803 [2] = experiment: Induction of apoptosis in human MGC-803 cells assessed as nuclear fragmentation at 5 to 15 nM incubated for 48 hrs by DAPI staining based analysis; assay type: functional, cell-based; settings: dose 5-15 nM
# Mus musculus [3] = experiment: Upregulation of phosphorylated Histone H3 expression in tumor tissue of BALB/c nude mouse xenografted with human MGC-803 cells at 15 to 30 mg/kg, ip administered once daily for 21 days by Western blotting analysis; assay type: functional, organism-based; settings: dose 15-30 mg/kg, time 21.0 day
# EC9706 = experiment: Antiproliferative activity against human EC9706 cells assessed as reduction in cell viability incubated for 48 hrs by MTT assay; assay type: functional, cell-based; settings: EC9706, 48 h
# MGC-803 [4] = experiment: Downregulation of phosphorylated ATF-2 expression in human MGC-803 cells incubated for 48 hrs; assay type: functional, cell-based; settings: dose 5-15 nM, DDE = dose-dependent effect
# HGC-27 [5] = experiment: Upregulation of phosphorylated Histone H3 expression in human HGC-27 cells at 10 to 30 nM incubated for 48 hrs; assay type: functional, cell-based; settings: dose 10-30 nM
# MGC-803 [6] = experiment: Inhibition of p38 signalling pathway in human MGC-803 cells assessed as reduction in p38 phosphorylation at 5 to 15 nM incubated for 48 hrs; assay type: cell-based; settings: dose 5-15 nM
# MGC-803 [7] = experiment: Downregulation of Wee1 expression in human MGC-803 cells at 5 to 15 nM incubated for 48 hrs; assay type: functional, cell-based; settings: dose 5-15 nM
# Tubulin (Homo sapiens) [8] = target: T1, Tubulin (Homo sapiens) (UniProt P68371+Q9H4B7+P0DPH7+P68366+Q13509+Q71U36+P04350+Q3ZCM7+P07437+P68363+Q9BQE3+Q6PEY2+Q13885+Q9BVA1+Q9BUF5); experiment: Disruption of microtubule network in human HGC-27 cells assessed as irregular form of filamentous microtubule structures at 10 to 30 nM measured after 48 hrs by DAPI staining based fluorescence microscopic analysis; assay type: cell-based; settings: dose 10-30 nM
# Mus musculus [9] = experiment: Downregulation of JNK phosphorylation in tumor tissue of BALB/c nude mouse xenografted with human MGC-803 cells at 15 to 30 mg/kg, ip administered once daily for 21 days by Western blotting analysis; assay type: functional, organism-based; settings: dose 15-30 mg/kg, time 21.0 day
# MGC-803 [10] = experiment: Inhibition of cell migration in human MGC-803 cells assessed as reduction in wound healing rate at 5 to 15 nM incubated for 24 hrs; assay type: functional, cell-based; settings: dose 5-15 nM
# HGC-27 [11] = experiment: Inhibition of cell migration in human HGC-27 cells assessed as reduction in wound healing rate at 10 to 30 nM incubated for 24 hrs; assay type: functional, cell-based; settings: dose 10-30 nM
# MGC-803 [12] = experiment: Downregulation of FoxO3a expression in human MGC-803 cells incubated for 48 hrs; assay type: functional, cell-based; settings: dose 5-15 nM, DDE = dose-dependent effect
# [13] = Toxicity in BALB/c nude mouse xenografted with human MGC-803 cells assessed as effect on body weight at 15 to 30 mg/kg, ip administered once daily for 21 days; assay type: organism-based; settings: in vivo, 504 h, dose 15-30 mg/kg, time 21 day
# HGC-27 [14] = experiment: Downregulation of vimentin expression in human HGC-27 cells incubated for 48 hrs; assay type: functional, cell-based; settings: dose 10-30 nM, DDE = dose-dependent effect
# NCI-H520 = experiment: Antiproliferative activity against human NCI-H520 cells assessed as reduction in cell viability incubated for 48 hrs by MTT assay; assay type: functional, cell-based; settings: NCI-H520, 48 h
# MGC-803 [15] = experiment: Induction of apoptosis in human MGC-803 cells assessed as increase in Noxa level; assay type: functional, cell-based; settings: dose 5-15 nM, DDE = dose-dependent effect
# MGC-803 [16] = experiment: Antiinvasive activity against human MGC-803 cells assessed as reduction in number of cells in membrane incubated for 48 hrs by trans well assay; assay type: functional, cell-based; settings: dose 5-15 nM, DDE = dose-dependent effect
# PC-3 = experiment: Antiproliferative activity against human PC-3 cells assessed as reduction in cell viability incubated for 48 hrs by MTT assay; assay type: functional, cell-based; settings: PC-3, 48 h
# Tubulin (Sus scrofa) = Tubulin (Sus scrofa) (UniProt P02554+P02550); experiment: Inhibition of porcine brain tubulin polymerization assessed as reduction in tubulin polymerization level by measuring relative fluorescence intensity at 3 umol/l by fluorescence based assay; assay type: tissue-based; settings: dose 3.0 µmol/L
# HGC-27 [17] = experiment: Downregulation of ATF4 expression in human HGC-27 cells incubated for 48 hrs; assay type: functional, cell-based; settings: dose 10-30 nM, DDE = dose-dependent effect
# HGC-27 [18] = experiment: Induction of apoptosis in human HGC-27 cells assessed as decrease in Bcl-2 level; assay type: functional, cell-based; settings: dose 10-30 nM, DDE = dose-dependent effect
# Mus musculus [19] = experiment: Downregulation of ERK1/2 phosphorylation in tumor tissue of BALB/c nude mouse xenografted with human MGC-803 cells at 15 to 30 mg/kg, ip administered once daily for 21 days by Western blotting analysis; assay type: functional, organism-based; settings: dose 15-30 mg/kg, time 21.0 day
# [20] = target: c-Jun N-terminal kinase, JNK (Homo sapiens) (UniProt P45983+P53779+P45984); experiment: Inhibition of JNK signalling pathway in human HGC-27 cells assessed as reduction in JNK phosphorylation at 10 to 30 nM incubated for 48 hrs; assay type: cell-based; settings: dose 10-30 nM
# HGC-27 [21] = experiment: Induction of apoptosis in human HGC-27 cells assessed as increase in cleavage caspase 7 level; assay type: functional, cell-based; settings: dose 10-30 nM, DDE = dose-dependent effect
# HGC-27 [22] = experiment: Downregulation of cyclin B1 expression in human HGC-27 cells at 10 to 30 nM incubated for 48 hrs; assay type: functional, cell-based; settings: dose 10-30 nM
# MGC-803 [23] = experiment: Inhibition of ERK signalling pathway in human MGC-803 cells assessed as reduction in downstream substrate p90RSK phosphorylation at 5 to 15 nM incubated for 48 hrs; assay type: cell-based; settings: dose 5-15 nM
# MGC-803 [24] = experiment: Antiproliferative activity against human MGC-803 cells assessed as reduction in cell viability incubated for 48 hrs by MTT assay; assay type: functional, cell-based
# A549 = experiment: Antiproliferative activity against human A549 cells assessed as reduction in cell viability incubated for 48 hrs by MTT assay; assay type: functional, cell-based; settings: A549, 48 h
# Mus musculus [25] = experiment: Upregulation of PARP expression in tumor tissue of BALB/c nude mouse xenografted with human MGC-803 cells at 15 to 30 mg/kg, ip administered once daily for 21 days by Western blotting analysis; assay type: functional, organism-based; settings: dose 15-30 mg/kg, time 21.0 day
# HCT-116 = experiment: cells; settings: Homo sapiens, HCT-116, 48 h
# MGC-803 [26] = experiment: Downregulation of vimentin expression in human MGC-803 cells incubated for 48 hrs; assay type: functional, cell-based; settings: dose 5-15 nM, DDE = dose-dependent effect
# MGC-803 [27] = experiment: Antitumor activity against human MGC-803 cells xenografted BALB/c nude mouse assessed as tumor growth inhibition at 15 mg/kg, ip administered once daily for 21 days; assay type: functional; settings: MGC-803, 504 h, time 21 day, read-out: TGI
# MGC-803 [28] = experiment: Induction of apoptosis in human MGC-803 cells assessed as increase in cleavage caspase 3 level; assay type: functional, cell-based; settings: dose 5-15 nM, DDE = dose-dependent effect
# Tubulin (Homo sapiens) [29] = target: T1, Tubulin (Homo sapiens); experiment: Disruption of microtubule network in human HGC-27 cells assessed as incomplete mitosis at 10 to 30 nM measured after 48 hrs by DAPI staining based fluorescence microscopic analysis; assay type: cell-based; settings: dose 10-30 nM
# HGC-27 [30] = experiment: Induction of apoptosis in human HGC-27 cells assessed as upregulation of cleavage caspase 8 level; assay type: functional, cell-based; settings: dose 10-30 nM, DDE = dose-dependent effect
# HGC-27 [31] = experiment: Antiproliferative activity against human HGC-27 cells assessed as reduction in cell viability incubated for 12 to 48 hrs by MTT assay; assay type: functional, cell-based; settings: dose 15-30 nM, time 12-48 hrs, DDE = dose-dependent effect
# Sequence of Tubulin (Sus scrofa) (P02550 whole entry, looked up): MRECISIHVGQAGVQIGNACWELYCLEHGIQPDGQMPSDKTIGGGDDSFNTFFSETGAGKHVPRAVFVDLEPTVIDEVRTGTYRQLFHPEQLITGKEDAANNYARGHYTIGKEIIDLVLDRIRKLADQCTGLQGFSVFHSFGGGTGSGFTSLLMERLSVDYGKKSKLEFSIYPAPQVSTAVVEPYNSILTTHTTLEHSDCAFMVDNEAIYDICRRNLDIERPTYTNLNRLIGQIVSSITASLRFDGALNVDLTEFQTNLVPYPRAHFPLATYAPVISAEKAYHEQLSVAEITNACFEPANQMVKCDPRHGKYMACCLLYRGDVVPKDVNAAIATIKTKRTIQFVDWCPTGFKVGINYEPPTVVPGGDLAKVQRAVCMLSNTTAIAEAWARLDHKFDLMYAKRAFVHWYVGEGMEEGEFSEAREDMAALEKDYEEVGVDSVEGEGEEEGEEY
# Sequence of Tubulin (Sus scrofa) (P02554 whole entry, looked up): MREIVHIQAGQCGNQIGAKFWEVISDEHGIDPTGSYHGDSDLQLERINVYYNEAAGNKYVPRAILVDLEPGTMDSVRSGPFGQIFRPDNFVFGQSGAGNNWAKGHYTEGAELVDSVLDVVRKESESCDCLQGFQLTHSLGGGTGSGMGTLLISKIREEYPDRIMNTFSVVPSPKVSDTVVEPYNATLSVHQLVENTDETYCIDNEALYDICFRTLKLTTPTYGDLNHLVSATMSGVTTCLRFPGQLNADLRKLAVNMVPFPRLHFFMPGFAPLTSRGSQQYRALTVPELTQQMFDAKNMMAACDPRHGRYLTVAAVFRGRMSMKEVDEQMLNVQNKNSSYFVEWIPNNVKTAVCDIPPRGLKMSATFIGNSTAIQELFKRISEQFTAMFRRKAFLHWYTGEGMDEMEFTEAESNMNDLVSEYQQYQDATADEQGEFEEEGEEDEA
compound,measurement,setting,value
CN(c1ccc2c(ccn2C)c1)c1cc(=O)oc2ccccc12,Activity,[1],Non-Toxic
same,Activity,MGC-803 [2],Active
same,Activity,Mus musculus [3],Active
same,IC50,EC9706,21.8 nM
same,Activity,MGC-803 [4],Dde
same,Activity,HGC-27 [5],Active
same,inhibition,MGC-803 [6],Active
same,Activity,MGC-803 [7],Active
same,Activity,Tubulin (Homo sapiens) [8],Active
same,Activity,Mus musculus [9],Active
same,inhibition,MGC-803 [10],Active
same,inhibition,HGC-27 [11],Active
same,Activity,MGC-803 [12],Dde
same,Activity,[13],Non-Toxic
same,Activity,HGC-27 [14],Dde
same,IC50,NCI-H520,33.4 nM
same,Activity,MGC-803 [15],Dde
same,Activity,MGC-803 [16],Dde
same,IC50,PC-3,34.9 nM
same,inhibition,Tubulin (Sus scrofa),Active
same,Activity,HGC-27 [17],Dde
same,Activity,HGC-27 [18],Dde
same,Activity,Mus musculus [19],Active
same,inhibition,[20],Active
same,Activity,HGC-27 [21],Dde
same,Activity,HGC-27 [22],Active
same,inhibition,MGC-803 [23],Active
same,IC50,"MGC-803 [24]; Homo sapiens, MGC-803, 48 h",11 nM
same,IC50,MGC-803 [24]; mgc-803,11.5 nM
same,IC50,A549,59.3 nM
same,Activity,Mus musculus [25],Active
same,IC50,HCT-116,33 nM
same,Activity,MGC-803 [26],Dde
same,inhibition in vivo at 15 mg/kg,MGC-803 [27],70%
same,Activity,MGC-803 [28],Dde
same,Activity,Tubulin (Homo sapiens) [29],Active
same,Activity,HGC-27 [30],Dde
same,Activity,HGC-27 [31],Dde
